Experimental data taken from PubChem BioAssay (NCI).
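96-well plates; 48 h exposure; 5 concentrations. Endpoints by linear interpolation between flanking doses. Not reached: highest tested concentration assigned. At the GI50, growth is halved. At the TGI there is no net growth.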

Legend:
Assay in all cases: growth of human tumour cells (NCI), 48 h
[1] = tested on: 786-0 renal
[2] = tested on: A498 renal
[3] = tested on: A549 NSCLC
[4] = tested on: ACHN renal
[5] = tested on: BT-549 breast
[6] = tested on: CAKI-1 renal
[7] = tested on: CCRF-CEM leukemia
[8] = tested on: COLO 205 colon
[9] = tested on: DU-145 prostate
[10] = tested on: EKVX NSCLC
[11] = tested on: HCC-2998 colon
[12] = tested on: HCT-116 colon
[13] = tested on: HCT-15 colon
[14] = tested on: HL-60(TB) leukemia
[15] = tested on: HOP-62 NSCLC
[16] = tested on: HOP-92 NSCLC
[17] = tested on: HS 578T breast
[18] = tested on: HT29 colon
[19] = tested on: IGROV1 ovarian
[20] = tested on: K-562 leukemia
[21] = tested on: KM12 colon
[22] = tested on: LOX IMVI melanoma
[23] = tested on: M14 melanoma
[24] = tested on: MALME-3M melanoma
[25] = tested on: MCF7 breast
[26] = tested on: MDA-MB-231 breast
[27] = tested on: MDA-MB-435
[28] = tested on: MDA-MB-468 breast
[29] = tested on: MOLT-4 leukemia
[30] = tested on: NCI-H226 lung
[31] = tested on: NCI-H23 lung
[32] = tested on: NCI-H460 lung
[33] = tested on: NCI-H522 lung
[34] = tested on: NCI/ADR-RES ovarian
[35] = tested on: OVCAR-3 ovarian
[36] = tested on: OVCAR-4 ovarian
[37] = tested on: OVCAR-5 ovarian
[38] = tested on: OVCAR-8 ovarian
[39] = tested on: PC-3 prostate
[40] = tested on: RPMI-8226 leukemia
[41] = tested on: RXF 393 renal
[42] = tested on: SF-268 CNS
[43] = tested on: SF-295 CNS
[44] = tested on: SF-539 CNS
[45] = tested on: SK-MEL-2 melanoma
[46] = tested on: SK-MEL-28 melanoma
[47] = tested on: SK-MEL-5 melanoma
[48] = tested on: SK-OV-3 ovarian
[49] = tested on: SN12C renal
[50] = tested on: SNB-19 CNS
[51] = tested on: SNB-75 CNS
[52] = tested on: SR leukemia
[53] = tested on: SW-620 colon
[54] = tested on: T-47D breast
[55] = tested on: TK-10 renal
[56] = tested on: U251 CNS
[57] = tested on: UACC-257 melanoma
[58] = tested on: UACC-62 melanoma
[59] = tested on: UO-31 renal

With `C=CC[Se]C(=O)c1ccc(C(=O)[Se]CC=C)s1` the GI50 [1] was 314 nM, the TGI [1] was 1160 nM and the GI50 [2] was 2820 nM. The TGI [2] was 66900 nM, the GI50 [3] was 313 nM and the TGI [3] was greater than 27500 nM. It also gave a GI50 [4] of 942 nM, a TGI [4] of 4370 nM and a GI50 [5] of 324 nM. It also gave a TGI [5] of 1300 nM, a GI50 [6] of 810 nM and a TGI [6] of 9760 nM. The GI50 [7] was 428 nM, the TGI [7] was greater than 21800 nM and the GI50 [8] was 1400 nM. It also gave a TGI [8] of 4030 nM, a GI50 [9] of 680 nM and a TGI [9] of 6400 nM. It also gave a GI50 [10] of 623 nM, a TGI [10] of 1630 nM and a GI50 [11] of 313 nM. The TGI [11] was 1000 nM, the GI50 [12] was 327 nM and the TGI [12] was 1230 nM. It also gave a GI50 [13] of 765 nM, a TGI [13] of 2150 nM and a GI50 [14] of 581 nM. It also gave a TGI [14] of 2580 nM, a GI50 [15] of 152 nM and a TGI [15] of 1450 nM. It also gave a GI50 [16] of 920 nM, a TGI [16] of 7650 nM and a GI50 [17] of 294 nM. It also gave a TGI [17] of 1890 nM, a GI50 [18] of 887 nM and a TGI [18] greater than 31500 nM. For the same compound, the GI50 [19] was 277 nM, the TGI [19] was 727 nM and the GI50 [20] was 2100 nM. The TGI [20] was greater than 23000 nM, the GI50 [21] was 284 nM and the TGI [21] was 928 nM. The GI50 [22] was 721 nM, the TGI [22] was 2000 nM and the GI50 [23] was 387 nM. The TGI [23] was 1570 nM, the GI50 [24] was 670 nM and the TGI [24] was 2350 nM. It also gave a GI50 [25] of 565 nM, a TGI [25] of 1840 nM and a GI50 [26] of 676 nM. The TGI [26] was 6410 nM, the GI50 [27] was 691 nM and the TGI [27] was 2060 nM. The GI50 [28] was 657 nM, the TGI [28] was 1620 nM and the GI50 [29] was 992 nM. For the same compound, the TGI [29] was 5600 nM, the GI50 [30] was 794 nM and the TGI [30] was 2710 nM. For the same compound, the GI50 [31] was 313 nM, the TGI [31] was 1030 nM and the GI50 [32] was 289 nM. It also gave a TGI [32] of 1610 nM, a GI50 [33] of 524 nM and a TGI [33] of 1040 nM. The GI50 [34] was 261 nM, the TGI [34] was 661 nM and the GI50 [35] was 655 nM. It also gave a TGI [35] of 1620 nM, a GI50 [36] of 948 nM and a TGI [36] of 2500 nM. It also gave a GI50 [37] of 382 nM, a TGI [37] of 1010 nM and a GI50 [38] of 345 nM. It also gave a TGI [38] of 1090 nM, a GI50 [39] of 286 nM and a TGI [39] of 1290 nM. The GI50 [40] was 375 nM, the TGI [40] was 2430 nM and the GI50 [41] was 696 nM. The TGI [41] was 1640 nM, the GI50 [42] was 768 nM and the TGI [42] was 4830 nM. It also gave a GI50 [43] of 55.2 nM, a TGI [43] of 317 nM and a GI50 [44] of 307 nM. The TGI [44] was 852 nM, the GI50 [45] was 1260 nM and the TGI [45] was 3170 nM. It also gave a GI50 [46] of 666 nM, a TGI [46] of 1850 nM and a GI50 [47] of 1490 nM. For the same compound, the TGI [47] was 3350 nM, the GI50 [48] was 224 nM and the TGI [48] was 546 nM. It also gave a GI50 [49] of 348 nM, a TGI [49] of 1110 nM and a GI50 [50] of 289 nM. The TGI [50] was 1260 nM, the GI50 [51] was 215 nM and the TGI [51] was 577 nM. The GI50 [52] was 603 nM, the TGI [52] was 2210 nM and the GI50 [53] was 800 nM. For the same compound, the TGI [53] was 2140 nM, the GI50 [54] was 265 nM and the TGI [54] was 962 nM. The GI50 [55] was 1050 nM, the TGI [55] was 7560 nM and the GI50 [56] was 505 nM. For the same compound, the TGI [56] was 1870 nM, the GI50 [57] was 721 nM and the TGI [57] was 2080 nM. The GI50 [58] was 482 nM, the TGI [58] was 1390 nM and the GI50 [59] was 515 nM. For the same compound, the TGI [59] was 1090 nM.
